Columns and labels:
PP2A [1] = assay: PP2A activity in lysates of Ramos B cell line; assay type: cell-based, Human
Description: (§1) PP2A Activity: The protein phosphatase activity of total cellular lysate was determined by measuring the generation of free PO4 from the threonine phosphopeptide using the malachite green-phosphate complex assay as described by the manufacturer (Upstate, Charlottesville, […].). Cell lysates were prepared in a low detergent lysis buffer (1% Nonidet P-40, 10 mM HEPES, 0.5M NaCl, 10% Glycerol, 1 mM PMSF, 5 mM Benzamidine, 10 μg/ml leupeptin). The phosphatase assay was performed in a PP2A-specific reaction buffer (Upstate) using 750 μM phosphopeptide substrate. After 30-min incubation at 30° C. malachite dye was added, and free phosphate was measured by optical density at 650 nm. To avoid variability among different immunoprecipitated samples, the phosphatase activities were normalized with the amount of PP2A immunoprecipitated, as detected and quantified by western blot analysis of each treatment group.
In order to determine if FTY720 induced activation of PP2A enzyme in CD19^+ B cells from CLL patients were treated with 10 uM FTY720 for 0, 1, 2, 3, 4 and 15 hrs and the PP2A activity in the lysates were quantified using a functional assay following immunoprecipitation of PP2A enzyme. As reported previously in other systems, FTY720 induced a consistent 2-3 fold increase in PP2A activation with the peak response observed at 4 hour post treatment (FIG. 6a). […]

PP2A [2] = assay: PP2A activity (malachite green phosphatase assay) in lysates of CLL cells; assay type: cell-based, Human; conditions: pretreatment with 5 nM okadaic acid
Description: as §1
In order to determine if FTY720 induced activation of PP2A enzyme in CD19^+ B cells from CLL patients were treated with 10 uM FTY720 for 0, 1, 2, 3, 4 and 15 hrs and the PP2A activity in the lysates were quantified using a functional assay following immunoprecipitation of PP2A enzyme. As reported previously in other systems, FTY720 induced a consistent 2-3 fold increase in PP2A activation with the peak response observed at 4 hour post treatment (FIG. 6a). […] Similar phenomenon was also observed in Ramos B cell line. FTY720 induced activation of PP2A in Ramos cell line as early as 3 hours and this induced PP2A activity was inhibited by okadaic acid (FIG. 7a-b).

[3] = system: CD19+ B cells from CLL patients; assay type: cell-based; conditions: CLL cells
Description: Cells: Blood was obtained from patients with B-cell CLL with informed consent under a protocol approved by the hospital internal review board. All patients examined in this series had immunophenotypically defined CLL as outlined by the modified 96 National Cancer Institute criteria. B-CLL cells were isolated from freshly donated blood using ficoll density gradient centrifugation (Ficoll-Paque Plus, Amershan Biosciences, Piscataway, N.J.). Isolated mononuclear cells were incubated in RPMI 1640 media (Gibco/Invitrogen, Carlsbad, Calif.) supplemented with 10% heat-inactivated fetal bovine serum (FBS, Hyclone Laboratories, Logan, Utah), 2 mM L-glutamine (Invitrogen, Carlsbad, Calif.), and penicillin (100 U/mL)/streptomycin (100 μg/ml) [Sigma-Aldrich, St. Louis] at 37° C. in an atmosphere of 5% CO2. Freshly isolated B-CLL cells were used in all experiments described herein. Enriched B-lymphocyte fractions were prepared by using MACS negative selection kit by Miltenyi Biotech (Auburn, Calif.) or by “Rosette-Sep” kit from Stem Cell Technologies (Vancouver, British Columbia, Canada) according to the manufacturer's instructions. Human B-lymphocyte cell lines Raji and Ramos were obtained from ATCC (Manassas, Va.) and the MEC cells were obtained from German cell line bank (Braunschweig, Germany). The 697-neo and 697-Bcl-2 cell lines were kind gift from Dr. John Reed (Burnham Institute, La Jolla, Calif.). Cells were cultured at 37° C. in an atmosphere of 5% CO2 in RPMI 1640 media (Gibco/Invitrogen, Carlsbad, Calif.) supplemented with 10% fetal bovine serum (Gibco/Invitrogen).
(§2) Analysis of cell viability and apoptosis: The cell viability was carried out by dual staining with Annexin V conjugated to flourescein-isothyocyanate (FITC) and Propidium iodide (PI) as described previously. Briefly, 1×10^6 cells were stained with Annexin V-FITC (BD Pharmingen) and Propidium iodide (BD Pharmingen) for 15 minutes in dark and analyzed by flow cytometry using a Beckman-Coulter EPICS XL cytometer (Beckman-Coulter, Miami, Fla.). Apoptotic cells were identified as Annexin V and/or PI positive cells. Cells excluding both FITC and PI were considered to be viable. The Annexin V^−/PI^− cells are represented as % live cells normalized to untreated controls.
B-CLL cells are reported to be resistant to apoptosis in-vivo. To systematically analyze the effects of FTY720 on B-CLL cells, purified CD19^+ cells from B-CLL patients were incubated with increasing concentrations of FTY720 ranging from 0, 0.5, 1, 1.5, 2.5, 5 or 10 uM. The cytotoxic effects were independently determined by flow cytometry using propidium iodide (PI) and Annexin V conjugated FITC reagents. Populations excluding both PI and Annexin V-FITC staining were considered viable. […]

[4] = system: MEC, Ramos, Raji, 697 and RS4-11 B cell lines; assay: Annexin V/PI viability by flow cytometry in B cell lines; assay type: cell-based, Human; conditions: Ramos cells; okadaic acid pretreatment
Description: Cells: Blood was obtained from patients with B-cell CLL with informed consent under a protocol approved by the hospital internal review board. All patients examined in this series had immunophenotypically defined CLL as outlined by the modified 96 National Cancer Institute criteria. B-CLL cells were isolated from freshly donated blood using ficoll density gradient centrifugation (Ficoll-Paque Plus, Amershan Biosciences, Piscataway, N.J.). Isolated mononuclear cells were incubated in RPMI 1640 media (Gibco/Invitrogen, Carlsbad, Calif.) supplemented with 10% heat-inactivated fetal bovine serum (FBS, Hyclone Laboratories, Logan, Utah), 2 mM L-glutamine (Invitrogen, Carlsbad, Calif.), and penicillin (100 U/mL)/streptomycin (100 μg/ml) [Sigma-Aldrich, St. Louis] at 37° C. in an atmosphere of 5% CO2. Freshly isolated B-CLL cells were used in all experiments described herein. […]
as §2, with “Apoptotic cells were identified as Annexin V and/or PI positive cells. Cells excluding both FITC and PI were considered to be viable. The Annexin V^−/PI^− cells are represented as % live cells normalized to untreated controls.” left out

Mino cells = assay: Annexin V/PI toxicity in Mino cells; assay type: cell-based, Human; conditions: 150 μM z-VAD-fmk
Description: Primary MCL cells were isolated from PBMC (with informed patient consent under a protocol approved by IRB) as described before. All the MCL patients were identified as outlined by the World Health Organization (WHO) classification. Human mantle cell lymphoma patient cell lines (Mino and Jeko) were obtained from Dr. Raymond Lai. Primary cells or MCL cell lines were incubated in RPMI 1640 media, supplemented with 10%-20% heat-inactivated fetal bovine serum, 2 mM L-glutamine and penicillin (100 U/mL)/streptomycin ([…]) at 37° C. in an atmosphere of 5% CO2. FTY720 was synthesized as previously described. Toxicity was determined by flow cytometry using Annexin-V-FITC and Propidium Iodide (PI) staining. Apoptotic cells were identified as Annexin-V+ and/or PI+ cells. Cells excluding both FITC and PI were considered viable. Western Blotting was performed as described previously using indicated antibodies. The PARP (Ab-2) and Caspase 9 antibodies were purchased from Oncogene/Calbiochem/EMD Biosciences (San Diego, Calif.). Cyclin D1, Akt, Actin, Mcl-1, p-ERK, ERK and Bcl-2 were obtained from Santa Cruz biotech (Santa Cruz, Calif.).
Several therapeutic agents, including fludarabine, chlorambucil, 2-chloro-2-deoxyadenosine and glucocorticoids, induce toxicity in B cell malignancies through activating caspases, the cysteine proteases of CED3/ICE family. Inhibition of these caspases results in abrogation of apoptosis mediated by the toxic stimuli. To determine if caspase activation is involved in FTY720-induced cytotoxicity in MCL, we pretreated Mino cells with 150 μM broad spectrum caspase inhibitor z-VAD-fmk. […] Activation of caspases results in cleavage of key cellular proteins including poly-ADP-ribose polymerase (PARP).

Molecule | effect of okadaic acid on FTY720 induced PP2A activity (PP2A [1]) | inhibition of the FTY720 induced PP2A activation (PP2A [2]) | effect of okadaic acid on FTY720 induced cellular cytotoxicity ([3]; okadaic acid pretreatment) | effect of okadaic acid on FTY720 induced apoptosis [4] | effect of z-VAD-fmk on FTY720 induced apoptosis ([3]; z-VAD-fmk 150 uM) | effect of z-VAD-fmk on fludarabine induced apoptosis ([3]; z-VAD-fmk 150 uM) | reduction in FTY720 induced apoptosis (Mino cells) | reduction in fludarabine induced apoptosis (Mino cells)
C=C1[C@@H](O)[C@@H]2O[C@]3(CC[C@H](/C=C/[C@@H](C)[C@@H]4CC(C)=C[C@@]5(O[C@H](C[C@@](C)(O)C(=O)O)CC[C@H]5O)O4)O3)CC[C@H]2O[C@@H]1[C@@H](O)C[C@H](C)[C@H]1O[C@@]2(CCCCO2)CC[C@H]1C [okadaic acid] | inhibited | ≤ 3 fold | inhibition of FTY720 induced cellular cytotoxicity | inhibition of FTY720 induced apoptosis | – | – | – | –
z-VAD-fmk | – | – | – | – | failed to prevent FTY720 induced apoptosis | effectively rescued fludarabine induced apoptosis | ~50% | ~50%
